# Source: article PMC4472559 (Journal of the American Chemical Society, 2015)
# Target: transthyretin (TTR^WT) (Homo sapiens, UniProt P02766)
# Assay: isothermal titration calorimetry
# Type: binding
smiles,measurement,value
"O=S(=O)(F)Oc1ccc(-c2nnc(-c3cc(Cl)c(O)c(Cl)c3)o2)cc1 [compound 4, probe 4]",Kd,2 nM
